From PubChem BioAssay AID1745844 (Carcinogenic Potency Database (CPDB), 2022)
Values joined by “and” are separate entries in the source; they are usually repeats but may differ in a detail not shown here. Equal values may be shown once. Active and inactive are the calls of the source. How the calls were made is not given here.

System: rodent lifetime carcinogenesis bioassay, tumor incidence TD50
Test: chronic cancer bioassays in animals – CPDB, compiled studies (AID 1745844)

In the case of `Nc1ccc(Nc2ccccc2)cc1`, the carcinogen call (mouse, strain B6C3F1, females, in feed, site: any site (literature study), lesion: several types, types named in the paper, dosed 48 weeks, study length 91 weeks) is reported as “negative (inactive)”, the carcinogen call (mouse, strain B6C3F1, males, in feed, site: any site (literature study), lesion: several types, types named in the paper, dosed 48 weeks, study length 91 weeks) is reported as “negative (inactive)” and the TD50 (mouse, strain B6C3F1, males, in feed, site: liver, lesion: hepatocellular adenoma + hepatocellular carcinoma + neoplastic nodule, dosed 48 weeks, study length 91 weeks) is reported as 213 mg/kg/day. The carcinogen call (rat, strain Fischer 344, females, in feed, site: any site (literature study), lesion: several types, types named in the paper, dosed 78 weeks, study length 104 weeks) was “negative (inactive)” and the TD50 (rat, strain Fischer 344, males, in feed, site: any site (literature study), lesion: several types, types named in the paper, dosed 78 weeks, study length 104 weeks) was 161 mg/kg/day (inactive).
With `Nc1nc(N)c2nc(-c3ccccc3)c(N)nc2n1` the TD50 (mouse, strain B6C3F1, females, in feed, site: any site (literature study), lesion: several types, types named in the paper, dosed 104 weeks, study length 104 weeks) was 132 mg/kg/day and 64.4 mg/kg/day, the TD50 (mouse, strain B6C3F1, females, in feed, site: liver, lesion: hepatocellular adenoma + hepatoblastoma + hepatocellular carcinoma, dosed 104 weeks, study length 104 weeks) was 51.3 mg/kg/day and 45.3 mg/kg/day and the TD50 (mouse, strain B6C3F1, females, in feed, site: liver, lesion: hepatocellular adenoma + hepatocellular carcinoma, dosed 104 weeks, study length 104 weeks) was 51.3 mg/kg/day and 45.3 mg/kg/day. For the same compound, the TD50 (mouse, strain B6C3F1, females, in feed, site: liver, lesion: hepatocellular adenoma, dosed 104 weeks, study length 104 weeks) was 46 mg/kg/day and 45.7 mg/kg/day, the TD50 (mouse, strain B6C3F1, males, in feed, site: Harderian gland, lesion: adenoma, dosed 104 weeks, study length 104 weeks) was 235 mg/kg/day and the TD50 (mouse, strain B6C3F1, males, in feed, site: any site (literature study), lesion: several types, types named in the paper, dosed 104 weeks, study length 104 weeks) was 205 mg/kg/day and 86.7 mg/kg/day. The TD50 (mouse, strain B6C3F1, males, in feed, site: liver, lesion: hepatocellular adenoma + hepatoblastoma + hepatocellular carcinoma, dosed 104 weeks, study length 104 weeks) was 169 mg/kg/day and 61.2 mg/kg/day, the TD50 (mouse, strain B6C3F1, males, in feed, site: liver, lesion: hepatocellular adenoma + hepatocellular carcinoma, dosed 104 weeks, study length 104 weeks) was 162 mg/kg/day and 61.2 mg/kg/day and the TD50 (mouse, strain B6C3F1, males, in feed, site: liver, lesion: hepatocellular adenoma, dosed 104 weeks, study length 104 weeks) was 54.8 mg/kg/day. The TD50 (mouse, strain B6C3F1, males, in feed, site: liver, lesion: hepatocellular carcinoma, dosed 104 weeks, study length 104 weeks) was 227 mg/kg/day, the TD50 (mouse, strain B6C3F1, males, in feed, site: lung, lesion: alveolar/bronchiolar adenoma + alveolar/bronchiolar carcinoma, dosed 104 weeks, study length 104 weeks) was 233 mg/kg/day and 265 mg/kg/day and the carcinogen call (rat, strain Fischer 344, females, in feed, site: any site (literature study), lesion: several types, types named in the paper, dosed 104 weeks, study length 104 weeks) was “negative (inactive)”. It also gave a TD50 (rat, strain Fischer 344, females, in feed, site: liver, lesion: hepatocellular adenoma + hepatoblastoma + hepatocellular carcinoma, dosed 104 weeks, study length 104 weeks) of 520 mg/kg/day, a TD50 (rat, strain Fischer 344, males, in feed, site: liver, lesion: hepatocellular adenoma + hepatoblastoma + hepatocellular carcinoma, dosed 104 weeks, study length 104 weeks) of 11.8 mg/kg/day and a TD50 (rat, strain Fischer 344, males, in feed, site: liver, lesion: hepatocellular adenoma, dosed 104 weeks, study length 104 weeks) of 11.8 mg/kg/day.
In the case of `CC(C)(C)NCC(O)c1ccc(O)c(CO)c1` (centres undefined), the TD50 (rat, strain Charles River CD (Sprague-Dawley), females, in feed, site: mesovarium, lesion: leiomyoma, dosed 80 weeks, study length 80 weeks) is reported as 36.3 mg/kg/day and the TD50 (rat, strain Charles River CD (Sprague-Dawley), females, in feed, site: mesovarium, lesion: leiomyoma, dosed 104 weeks, study length 104 weeks) is reported as 44.6 mg/kg/day.
`C=C(C)C` was tested, and the carcinogen call (mouse, strain B6C3F1, females, inhaled, site: any site (literature study), lesion: several types, types named in the paper, dosed 105 weeks, study length 105 weeks) was “negative (inactive)”, the TD50 (mouse, strain B6C3F1, females, inhaled, site: liver, lesion: hepatocellular adenoma + hepatoblastoma + hepatocellular carcinoma, dosed 105 weeks, study length 105 weeks) was 47800 mg/kg/day and the TD50 (mouse, strain B6C3F1, males, inhaled, site: any site (literature study), lesion: several types, types named in the paper, dosed 104 weeks, study length 104 weeks) was 8840 mg/kg/day (inactive). The carcinogen call (rat, strain Fischer 344, females, inhaled, site: any site (literature study), lesion: several types, types named in the paper, dosed 104 weeks, study length 104 weeks) was “negative (inactive)”, the TD50 (rat, strain Fischer 344, females, inhaled, site: liver, lesion: hepatocellular adenoma + hepatoblastoma + hepatocellular carcinoma, dosed 104 weeks, study length 104 weeks) was 30100 mg/kg/day and the TD50 (rat, strain Fischer 344, males, inhaled, site: thyroid gland, lesion: follicular-cell carcinoma, dosed 104 weeks, study length 104 weeks) was 3550 mg/kg/day.
`CN(C)C=O` was tested, and the TD50 (mouse, strain Charles River CD1, females, inhaled, site: liver, lesion: hepatocellular adenoma, dosed 78 weeks, study length 78 weeks) was 15800 mg/kg/day (inactive), the carcinogen call (mouse, strain Charles River CD1, males, inhaled, site: liver, lesion: hepatocellular adenoma, dosed 78 weeks, study length 78 weeks) was “negative (inactive)” and the TD50 (mouse, strain Charles River CD1, males, inhaled, site: liver, lesion: hepatocellular carcinoma, dosed 78 weeks, study length 78 weeks) was 3070 mg/kg/day (inactive). The carcinogen call (rat, strain Charles River CD (Sprague-Dawley), females, inhaled, site: liver, lesion: hepatocellular adenoma, dosed 104 weeks, study length 104 weeks) was “negative (inactive)”, the TD50 (rat, strain Charles River CD (Sprague-Dawley), males, inhaled, site: liver, lesion: hepatocellular adenoma, dosed 104 weeks, study length 104 weeks) was 2640 mg/kg/day (inactive) and the TD50 (rat, strain Charles River CD (Sprague-Dawley), males, inhaled, site: liver, lesion: hepatocellular carcinoma, dosed 104 weeks, study length 104 weeks) was 3340 mg/kg/day (inactive).
